{"source": "patent US6737418B2", "about": "“Aryl substituted pyrazoles, imidazoles, oxazoles, thiazoles and pyrroles, and the use thereof” (Euro-Celtique S.A., priority 1999, dated 2004)", "key": {"[1]": {"system": "maximal electroshock-induced seizures (MES)", "test": "Maximum electroshock seizure test (MES), oral administration to mice", "format": "in vivo", "conditions": "Mus musculus, po, 30 minutes before the test, dose protecting 50% of animals", "excerpt": "The compounds of the present invention may be tested for in vivo anticonvulsant activity after i.v., p.o. or i.p. injection using a number of anticonvulsant tests in mice, including the maximum electroshock seizure test (MES). Maximum electroshock seizures were induced in male NSA mice weighing between 15-20 g and male Sprague-Dawley rats weighing between 200-225 g by application of current (50 mA, 60 pulses/sec, 0.8 msec pulse width, 1 sec duration, D.C., mice; 99 mA, 125 pulses/sec, 0.8 msec pulse width, 2 sec duration, D.C., rats) using a Ugo Basile ECT device (Model 7801). Mice were restrained by gripping the loose skin on their dorsal surface and saline-coated corneal electrodes were held lightly against the two corneae. Rats were allowed free movement on the bench top and ear-clip electrodes were used. […] A tonic seizure was defined as a hindlimb extension in excess of 90 degrees from the plane of the body. Results were treated in a quantal manner.\nThe ability of 3-[4-(2,4-difluorophenoxy)phenyl]-1H-pyrazole-1-carboxamide to block maximal electroshock-induced seizures (MES) was determined as described earlier.\n3-[4-(2,4-Difluorophenoxy)phenyl]-1H-pyrazole-1-carboxamide was administered p.o. to mice 30 minutes before the test procedure.\nThe following compounds in Table 1 were tested in MES as described for 3-[4-(2,4-difluorophenoxy)phenyl]-1H-pyrazole-1-carboxamide: […]"}, "[2]": {"target": "rBIIA isoform of Na+ channels (Rattus norvegicus, UniProt P04775)", "test": "Electrophysiological Assay 2: whole-cell patch-clamp of Na+ currents in HEK-293 cells expressing rBIIA", "format": "cell-based", "conditions": "HEK-293 cells stably expressing rBIIA; concentration that produces half maximal inhibition", "experimental": "Cell preparation: HEK-293 (NaIIA-B2) cell line stably expressing the rBIIA isoform of Na^+ channels was established in-house. The cells were cultured using standard techniques, as described previously (Verdoorn, T. A, et al., Neuron 4:919-928 (1990)). For electrophysiology, cells were plated onto poly-D-lysine pre-coated Cellware 35 mm Petri dishes (BIOCOAT, Becton Dickinson) at a density of ˜10^4 cells/dish on the day of re-seeding from confluent cultures. Our experience has been that cells are suitable for recordings for 2-3 days after plating.\nPatch-clamp recordings of voltage-sensitive Na^+ currents. Whole-cell voltage-clamp recordings were made using conventional patch-clamp techniques (Hamill et al., Pfluegers Arch. 391:85-100 (1981)) with an Axopatch 200A amplifier (Axon Instruments, Foster City, Calif.). The recording chamber was continuously superfused with the external solution (150 mM NaCl, 5.4 mM KCl, 1.8 mM CaCl2, 1 mM MgCl2, 10 mM HEPES, 10 mM glucose, pH7.4 adjusted with NaOH, osmolality ˜320 mmol/kg) at a speed of about 1 mL/min. Recording pipettes were pulled from the thick-walled capillaries (WPI, Sarasota, Fla.) and fire-polished. The pipette resistances ranged from 1 to 3 MΩ when the pipettes were filled with internal solution containing (in mM): 130 CsF, 20 NaCl, 2 MgCl2, 10 EGTA, 10 HEPES, pH adjusted to 7.4 with CsOH, osmolality ˜310 mmol/kg. Drugs and intervening wash-outs were applied through a linear array of flow pipes (Drummond Microcaps, 2 μL, 64-mm length). Compounds are dissolved in dimethylsulfoxide (DMSO) to make a 30 mM stock solution, which was subsequently diluted into the external solution to give final concentrations of 0.1-100 μM. At the highest (1%) concentration, DMSO inhibited the size of Na^+ current only slightly. Currents were recorded at room temperature (22-25° C.), filtered at 3 kHz with an active 8-pole Bessel filter (Frequency Devices, Haverhill, Mass.), digitized at 10-50 μs intervals, and stored using Digidata 1200 analog/digital interface with Pclamp6/Clampex software (Axon Instruments). Series resistance was cancelled typically by ˜75% when necessary.\nThe following voltage pulse protocols were used to assess the potency and kinetics of inhibition of the Na^+ channels by the compounds (FIG. 1). [drawing 33]\nFIG. 1. Voltage pulse protocols. A. IV-curves. C. Steady-state inactivation. B. Repriming kinetics. D. Time course of binding.\nCurrent-voltage relationship (IV-curve), protocol A, was used to report the voltage at which the maximal inward Na^+ current is achieved. This voltage was used throughout the experiment as testing voltage, Vt. The steady-state inactivation (or, availability) curve, protocol C, was used to get the voltage at which almost complete (≧95%) inactivation of Na^+ channels occurs; it served as voltage for conditioning prepulse, Vc, throughout the experiment. Protocol B reports how fast the channels recover from inactivation at hyperpolarized voltages. This permitted us to set up the duration of the hyperpolarization gap which is used in measurement of the kinetics of binding of compounds to inactivated Na^+ channels (protocol D). Channel repriming under control conditions was fast (≧90% recovery during first 5-10 ms). If a drug substantially retards the repriming process then it becomes possible (protocol D) to accurately measure the kinetics of binding of the inhibitor to inactivated channels as well as the steady-state affinity (k+ and Ki). To estimate k+ values the reduction in peak currents in successive trials with varying pre-pulse duration was plotted as a function of pre-pulse duration and the time constant (τ) measured by mono-exponential fit. A plot of 1/τ as a function of antagonist concentration then allowed calculating of the macroscopic binding rates of the antagonists. To determine Ki values the partial inhibition curves measured by fractional responses in steady-state were fitted with the logistic equation: […]"}}}
{"smiles": "Cl.Fc1cc(Cl)ccc1Oc1ccc(-c2c[nH]cn2)cc1", "note": "[4-[4-(4-Chloro-2-fluorophenoxy)phenyl]-1H-imidazole, hydrochloride salt]", "values": [{"measurement": "ED50", "setting": "[1]", "value": 10, "unit": "mg/kg"}, {"measurement": "Ki", "setting": "[2]", "value": 120, "unit": "nM"}, {"measurement": "melting point", "value": "216 to 220", "unit": "°C"}]}
